The values below come from the METLIN SMRT retention time set (Domingo-Almenara et al. 2019).

A short description of this series: gradient 5% acetonitrile 3 min, to 50% in 2 min, to 85% in 15 min, held 3 min, 100 µL/min. The settings on record: column: Zorbax Extend-C18 2.1 x 50 mm; eluents: water / acetonitrile, 0.1% formic acid. The procedure, abridged: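 Retention time was recorded from adduct peaks, which were picked computationally and each inspected manually. Pure standards ran in mixtures of ~100 molecules on HPLC coupled to a quadrupole time-of-flight mass spectrometer, in positive and negative ionization mode, through a Zorbax Extend-C18 column (2.1 × 50 mm, 1.8 μm) at 100 μL/min. Eluents were water and acetonitrile, each with 0.1% formic acid.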
The compound `Cc1cccc(-c2nnc(C)c(NCc3ccc(C)o3)n2)c1` registered an RP-LC retention time of 736 s. With `COC(=O)c1ccc(-c2nc3cnccn3c2Nc2cccc(C(=O)OC)c2)cc1` the figure was 822 s; with `COc1cccc(-n2ccc(=O)c(-c3nc(-c4cccc(F)c4)no3)n2)c1`, 905 s. `Cc1ccccc1CNC(=O)C1CC(=O)N(c2ccc3c(c2)CCN3C(=O)C2CC2)C1` (stereo not given) displayed an RP-LC retention time of 702 s. Compound `O=C(NCc1ccccc1F)C1CCN(c2cnc(N3CCCC3)nc2)CC1` gave an RP-LC retention time of 654 s. The compound `O=S(=O)(c1ccccc1)N1CC2CN(S(=O)(=O)c3cccc(F)c3)CC(C1)O2` had an RP-LC retention time of 905 s. With `CCSC(=O)N1c2ccc(OC)cc2C=CC1C#N` (stereo not given) the figure was 911 s; with `Cc1ccc(S(=O)(=O)N2CCCC(Cn3c(C)nc4cccnc43)C2)c(C)c1` (stereo not given), 747 s; with `CCCn1cc(C(=O)NCC(=O)OCC)c(S(=O)(=O)N2CCN(c3cccc(Cl)c3)CC2)n1`, 1060 s. `CCCn1ncc(N2CCC(C(=O)NCCCN3CCCC3=O)CC2)cc1=O`: the RP-LC retention time was 594 s. Consider `Cc1sc(C)c(S(=O)(=O)N2CCN(c3ccc(F)cc3)CC2)c1-c1cc(C(F)(F)F)on1`, for which the RP-LC retention time is 1270 s. As to `CCCCCn1c(=O)c2c(nc3n2CCN3c2ccc(OC)cc2)n(C)c1=O`, the RP-LC retention time was 1010 s. `CCc1ccc2nc(NC3=NCN(CCCOC)CN3)nc(C)c2c1` registered an RP-LC retention time of 694 s. In turn, `CCc1nnc(-c2ccc(S(=O)(=O)NC3CCCC3)o2)o1` displayed an RP-LC retention time of 815 s. `CCC1=C(c2ccc(C)cc2)S(=O)(=O)N=C1N1CCC(C(=O)N2CCN(C)CC2)CC1` displayed an RP-LC retention time of 641 s.

In turn, `Cc1nc(-c2cccc(NC(=O)c3coc(NC(=O)c4ccco4)n3)c2)cs1` returned an RP-LC retention time of 688 s. The compound `COc1ccc(C)cc1NC(=O)C1CCN(c2nc(C3CCC3)nc3csc(C)c23)CC1` had an RP-LC retention time of 847 s. Take `Cc1nc(-c2ccc(-c3noc(COc4ccccc4)n3)cc2)cs1`: the RP-LC retention time worked out at 1180 s.

The compound `Cc1c(C(=O)N2CCN(C)CC2)cc(-c2ccccc2)n1C` returned an RP-LC retention time of 612 s.

Compound `COc1ccc(CC(=O)NCCc2cn(C)c3ncccc23)c(Cl)c1` gave an RP-LC retention time of 690 s. On to `CC(C)CC(=O)N1CCCC(COc2ccc(C(=O)NC(C)C)cc2)C1` (stereo not given), for which the RP-LC retention time worked out at 827 s. For `Cc1nc(-c2ccc(N3CCN(C(=O)c4cccc(Cl)c4)CC3)nc2)sc1C`, the RP-LC retention time is 957 s. Compound `Cc1ccc(C(=O)N2C[C@@H](F)C[C@H]2C(=O)N2CCOCC2)cc1` had an RP-LC retention time of 621 s. With `CC(C)c1ccc(CN2CC(c3nc(CCN(C)S(C)(=O)=O)no3)C2)cc1` the figure was 664 s. Consider `COCCc1nncn1C1CCN(C(=O)c2ccccc2OC(F)(F)F)CC1`, for which the RP-LC retention time stood at 646 s. With `Cc1ccc(Nc2nc(C(=O)NCc3ccco3)nc3ccccc23)cc1` the figure was 779 s. Take `COc1ccc(-c2nnc(COc3ccc(NC(=O)C4CCC4)cc3)o2)cc1`: the RP-LC retention time is 826 s. `COc1ccc(-c2c(C)noc2NC(C)=O)cc1S(=O)(=O)Nc1ccc(S(N)(=O)=O)cc1` showed an RP-LC retention time of 636 s.

The compound `COC(=O)c1ccccc1S(=O)(=O)Nc1cccn2c(C3CCC3)nnc12` returned an RP-LC retention time of 772 s. With `CC1(C)CC(=O)c2cn(-c3ccc(F)cc3)c(=O)c(C(=O)NC3CCCC3)c2C1`, the RP-LC retention time is 957 s.

`COC(=O)C1=CN(CC(=O)N2CCN(c3ccc(F)cc3)CC2)S(=O)(=O)N=C1C` returned an RP-LC retention time of 878 s. The compound `O=c1[nH]c2ccc(S(=O)(=O)N3CCN(c4nc5ccccc5[nH]4)CC3)cc2o1` displayed an RP-LC retention time of 522 s. In turn, `Cc1noc(C)c1-c1ccc(S(=O)(=O)Nc2cccc(C#N)c2)cc1` gave an RP-LC retention time of 874 s. Consider `CN(C)[C@@H]1CN(Cc2ccc(Br)o2)CC[C@@H]1CNC(=O)C1CC1`, for which the RP-LC retention time turned out to be 574 s. Regarding `Cc1ccc(CNC(=O)c2nc(-c3ccnc(N4CCCC4)c3)no2)o1`, the RP-LC retention time stood at 663 s. With `Cn1nc(-c2nnc(-c3ccccc3F)o2)c2c1CCN(S(=O)(=O)c1ccccc1F)C2`, the RP-LC retention time was determined as 903 s. Consider `CC1CCCN(CCCNC(=O)c2cc(S(=O)(=O)N3CCCCC3)ccc2Cl)C1` (stereo not given), for which the RP-LC retention time came to 661 s. The same measure for `CCOc1ccc(NC(=O)c2cc(=O)c3cc(Cl)c(C)cc3o2)c2cccnc12`: 714 s.

`Cc1ccc(N2C(=O)C3N=NN(Cc4nc(-c5ccc(OC(C)C)cc5)no4)C3C2=O)cc1` (stereo not given) returned an RP-LC retention time of 1110 s. The same measure for `O=C(Cn1nc2c(N3CCCCCC3)nccn2c1=O)NCc1ccc(F)cc1`: 691 s; for `CCN1CCCn2cc(S(=O)(=O)Nc3cc(Cl)ccc3OC)cc2C1=O`: 794 s; for `CCc1cccc(Nc2ncccc2S(N)(=O)=O)c1`: 889 s. As to `CN1C(=O)COc2cc(-c3noc(C(=O)NCC4CCCO4)n3)ccc21` (stereo not given), the RP-LC retention time was found to be 702 s. `Cc1cc(NC(=O)CN2CCc3nc(NC(=O)C4CC4)sc3C2)no1` returned an RP-LC retention time of 546 s.

Turning to `O=C(NCCC1CCN(C(=O)Nc2cc(F)ccc2F)CC1)C1CCCC1`, the RP-LC retention time worked out at 769 s.

In the case of `CCCS(=O)(=O)N1CC(n2cc(C(=O)NCC3CC3)nn2)C1`, the RP-LC retention time is 722 s. Turning to `COC(=O)c1ccccc1NC(=O)CSc1cc(C)nc(-c2cccnc2)n1`, the RP-LC retention time was 734 s. `CCOC(=O)c1c(C)[nH]c(C(=O)N2CCC(CC(=O)NCCN(C)C)CC2)c1C` displayed an RP-LC retention time of 569 s. `CC(=O)Nc1ccc2c(c1)Sc1ncccc1C(=O)N2C(C)C` returned an RP-LC retention time of 669 s. As to `COCCn1cc(CCNC(=O)Nc2ccc(Br)c(C)c2)c2cccnc21`, the RP-LC retention time was determined as 821 s. The same measure for `COc1ccccc1NC(=O)N1CCCC(C)(C(=O)NCc2ccccc2C)C1` (stereo not given): 859 s; for `COc1ccc(NC(=O)Nc2ccc3c(c2)CCN3S(=O)(=O)c2ccc(C)cc2)cc1`: 953 s. `COc1ccc(NC(=O)c2cccs2)c([N+](=O)[O-])c1` yielded an RP-LC retention time of 860 s. With `O=C(Nc1nc2ccccc2s1)c1ccc([N+](=O)[O-])cc1Cl` the figure was 877 s; with `Cc1ccc(-c2nnc(COc3cccc(NC(=O)c4n[nH]c5c4CCCC5)c3)o2)cc1`, 1010 s. In turn, `c1cncc(-c2n[nH]c(C3CCCCN3)n2)c1` (stereo not given) showed an RP-LC retention time of 555 s. In turn, `CCn1cc(-c2nc(-c3cccc(Br)c3)no2)c(=O)c2cc(F)c(N3CCOCC3)cc21` yielded an RP-LC retention time of 1050 s. `Cc1ccc(F)c(NS(=O)(=O)c2cc3n(c2)CCCNC3=O)c1`: the RP-LC retention time was 654 s.

`CN(CC(=O)Nc1c2c(nc3c1CCC3)CCCC2)Cc1ccccc1`: the RP-LC retention time was determined as 562 s. In turn, `O=C(NCC(c1cccnc1)c1c[nH]c2ccccc12)Nc1ccc(Br)cc1` (stereo not given) returned an RP-LC retention time of 724 s.

`CC1CCN(C(=O)c2cc3c(s2)CCC(C(=O)N2CCOCC2)C3)CC1` (stereo not given): the RP-LC retention time was found to be 765 s.

`COc1cc(OC)c(NC(=O)N2CCC(CN3CCCC(C)C3)CC2)cc1Cl` (stereo not given) registered an RP-LC retention time of 630 s.

Regarding `Cc1cccc(NS(=O)(=O)c2cc(-c3[nH]ncc3C(=O)N3CCOCC3)oc2C)c1`, the RP-LC retention time turned out to be 683 s. In turn, `O=C(c1ccc(F)cc1)N1CCN(c2cc(-c3cccs3)[nH]n2)CC1` displayed an RP-LC retention time of 764 s. Compound `Cc1ccc(CNC(=O)C2CCN(C(=O)N3CCOc4ccc(Cl)cc43)CC2)cc1` yielded an RP-LC retention time of 919 s.

As to `CC1CCCCN1S(=O)(=O)c1ccc2nc(N3CCN(c4ccccc4F)CC3)ccc2c1` (stereo not given), the RP-LC retention time came out at 1180 s.

As to `Cc1oc(-c2ccccc2)nc1CN(c1ccccc1)S(=O)(=O)c1cccs1`, the RP-LC retention time is 1150 s.

Compound `COC(=O)c1scc(-c2ccc(C)cc2)c1S(=O)(=O)N1CCC(C(N)=O)CC1` showed an RP-LC retention time of 798 s. The compound `CC1=C(C(=O)OC(C)C)C(c2cccc(Oc3ccccc3)c2)NC(=O)N1` (stereo not given) yielded an RP-LC retention time of 938 s. For the compound `Nc1nc(-c2ccccc2)c(C(=O)c2ccccc2)s1`, the RP-LC retention time was found to be 706 s. The same measure for `O=C(Cn1cccc(-c2nc(-c3ccc(F)cc3)no2)c1=O)Nc1ccc(Br)cc1F`: 964 s. For `O=C1N=C(N2CCOCC2)S/C1=C/c1ccc(-c2ccccc2Br)o1`, the RP-LC retention time stood at 872 s. `CCc1cccc(NC(=O)Nc2ccc3nncn3c2)c1` returned an RP-LC retention time of 747 s. The same measure for `Cc1ccc(CNC(=O)C2c3ccccc3CC(=O)N2C)o1` (stereo not given): 693 s.

As for `Cc1csc(-c2cc(S(=O)(=O)NC(C)C)c(C)n2C)n1`, the RP-LC retention time worked out at 852 s. In turn, `Cn1nccc1-c1csc(S(=O)(=O)NC2CCCCC2)c1` showed an RP-LC retention time of 877 s. For `O=C(NC1CC1)C1CCN(c2ccc(=O)n(-c3ccc(F)cc3)n2)CC1`, the RP-LC retention time was found to be 671 s.

`CC1CCCCN1CCNC(=O)c1cc(S(=O)(=O)N2CCCCC2)ccc1Cl` (stereo not given): the RP-LC retention time amounted to 651 s.

The compound `Cc1ccccc1N1CCN(Cc2nc(-c3ccc(N4CCCC(C)C4)nc3)no2)CC1` (stereo not given) gave an RP-LC retention time of 1160 s.

Regarding `Cc1cccc(Nc2c(-c3ccc(C(=O)O)cc3)nc3cnccn23)c1C`, the RP-LC retention time is 780 s.
